According to PubChem BioAssay AID248 (DTP/NCI, 2004):
Toxic doses and inconclusive results are not listed. Cut-off read from the data, not from the text of the source: active = T/C of 150% or more; inactive = T/C below 125%.

System: L1210 leukemia ip in BDF1 mice, survival T/C
Experiment: NCI In Vivo Anticancer Drug Screen. Data for tumor model L1210 Leukemia (intraperitoneal) in B6D2F1 (BDF1) mice
Settings: endpoint: mean survival time, higher = longer survival
Summary of the method: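 Transplanted-tumor mice were given test agent; controls received vehicle only. Survival readings from the two groups were divided (treated over control).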

[1] = dose: 100.0 mg/kg/injection, schedule: Q01DX001 (ip), vehicle: carboxymethylcellulose (CMC)
[2] = dose: 200.0 mg/kg/injection, schedule: Q01DX001 (ip), vehicle: carboxymethylcellulose (CMC)
[3] = dose: 400.0 mg/kg/injection, schedule: Q01DX001 (ip), vehicle: carboxymethylcellulose (CMC)
[4] = dose: 100.0 mg/kg/injection, schedule: Q01DX009 (ip), vehicle: saline with Tween-80
[5] = dose: 100.0 mg/kg/injection, schedule: Q04DX003 (ip), vehicle: saline with Tween-80
[6] = dose: 200.0 mg/kg/injection, schedule: Q01DX009 (ip), vehicle: saline with Tween-80
[7] = dose: 200.0 mg/kg/injection, schedule: Q04DX003 (ip), vehicle: saline with Tween-80
[8] = dose: 400.0 mg/kg/injection, schedule: Q01DX009 (ip), vehicle: saline with Tween-80
[9] = dose: 400.0 mg/kg/injection, schedule: Q04DX003 (ip), vehicle: saline with Tween-80
[10] = dose: 100.0 mg/kg/injection, schedule: Q01DX001 (ip), vehicle: saline with Tween-80
[11] = dose: 200.0 mg/kg/injection, schedule: Q01DX001 (ip), vehicle: saline with Tween-80
[12] = dose: 400.0 mg/kg/injection, schedule: Q01DX001 (ip), vehicle: saline with Tween-80
[13] = dose: 50.0 mg/kg/injection, schedule: Q01DX009 (ip), vehicle: saline with Tween-80
[14] = dose: 100.0 mg/kg/injection, schedule: Q01DX001 (ip), vehicle: Klucel (hydroxypropylcellulose) (HPC)
[15] = dose: 200.0 mg/kg/injection, schedule: Q01DX001 (ip), vehicle: Klucel (hydroxypropylcellulose) (HPC)
[16] = dose: 100.0 mg/kg/injection, schedule: Q04DX003 (ip), vehicle: Klucel (hydroxypropylcellulose) (HPC)
[17] = dose: 200.0 mg/kg/injection, schedule: Q04DX003 (ip), vehicle: Klucel (hydroxypropylcellulose) (HPC)
[18] = dose: 100.0 mg/kg/injection, schedule: Q01DX009 (ip), vehicle: Klucel (hydroxypropylcellulose) (HPC)
[19] = dose: 200.0 mg/kg/injection, schedule: Q01DX009 (ip), vehicle: Klucel (hydroxypropylcellulose) (HPC)
[20] = dose: 100.0 mg/kg/injection, schedule: Q04DX002 (ip), vehicle: Klucel (hydroxypropylcellulose) (HPC)
[21] = dose: 200.0 mg/kg/injection, schedule: Q04DX002 (ip), vehicle: Klucel (hydroxypropylcellulose) (HPC)
[22] = dose: 400.0 mg/kg/injection, schedule: Q04DX002 (ip), vehicle: Klucel (hydroxypropylcellulose) (HPC)

Measured: T/C

C[n+]1ccc(/C=C/c2c[nH]c3ccccc23)cc1
inactive: dose: 6.25 mg/kg/injection, schedule: Q04DX003 (ip), vehicle: saline with Tween-80 92 % of control | dose: 12.5 mg/kg/injection, schedule: Q04DX003 (ip), vehicle: saline with Tween-80 104 % of control | dose: 25.0 mg/kg/injection, schedule: Q04DX003 (ip), vehicle: saline with Tween-80 97 % of control

CCCCCCC(C)CCCCCCCCNCCOC(=O)c1ccc(N)cc1 (configuration not stated)
inactive: dose: 75.0 mg/kg/injection, schedule: Q01DX001 (ip), vehicle: saline 102 % of control | dose: 150.0 mg/kg/injection, schedule: Q01DX001 (ip), vehicle: saline 104 % of control

CS(=O)(=O)Oc1cccc(C(F)(F)F)c1
inactive: [1] 107 % of control | [2] 95 % of control | [3] 98 % of control

COc1cc(/C=N/NC(N)=S)cc(OC)c1OC
inactive: [4] 93 % of control | [5] 108 % of control | [6] 98 % of control | [7] 110 % of control | [8] 104 % of control | [9] 106 % of control

O=[N+]([O-])c1ccc(Cl)c(OCCCOc2ccc(S(=O)(=O)F)cc2)c1
inactive: [10] 96 % of control | [11] 87 % of control | [12] 90 % of control

CC(c1ccccc1)N1COc2ccc3ccccc3c2C1 (configuration not stated)
inactive: dose: 50.0 mg/kg/injection, schedule: Q01DX001 (ip), vehicle: carboxymethylcellulose (CMC) 97 % of control | dose: 50.0 mg/kg/injection, schedule: Q01DX015 (ip), vehicle: carboxymethylcellulose (CMC) 96 % of control | [1] 93 % of control | dose: 100.0 mg/kg/injection, schedule: Q01DX015 (ip), vehicle: carboxymethylcellulose (CMC) 96 % of control | [5] 94 % of control | [2] 103 % of control | dose: 200.0 mg/kg/injection, schedule: Q01DX015 (ip), vehicle: carboxymethylcellulose (CMC) 97 % of control | [7] 93 % of control | [3] 104 % of control | dose: 400.0 mg/kg/injection, schedule: Q01DX015 (ip), vehicle: carboxymethylcellulose (CMC) 90 % of control | [9] 88 % of control

BrCCCCOCBr
inactive: [13] 97 % of control | [4] 101 % of control | [6] 106 % of control

CCCCSSCCCC
inactive: dose: 50.0 mg/kg/injection, schedule: Q01DX001 (ip), vehicle: Klucel (hydroxypropylcellulose) (HPC) 94 % of control | [14] 102 % of control | [15] 105 % of control

CCC(OO)(C1=NC(C)(C)CO1)c1ccncc1Br (configuration not stated)
inactive: [14] 98 % of control | [16] 97 % of control | [15] 101 % of control | [17] 101 % of control | dose: 400.0 mg/kg/injection, schedule: Q04DX003 (ip), vehicle: Klucel (hydroxypropylcellulose) (HPC) 102 % of control

O=C1CC2(C(=O)N1c1ccccc1)C1C(=O)N(c3ccccc3)C(=O)C1C1C3C(=CCC4C(=O)N(c5ccccc5)C(=O)C43)C=CN12 (configuration not stated)
inactive: dose: 100.0 mg/kg/injection, schedule: Q04DX002 (ip), vehicle: saline with Tween-80 105 % of control | dose: 200.0 mg/kg/injection, schedule: Q04DX002 (ip), vehicle: saline with Tween-80 98 % of control | dose: 400.0 mg/kg/injection, schedule: Q04DX002 (ip), vehicle: saline with Tween-80 102 % of control

COCCOCC1CO1 (configuration not stated)
inactive: dose: 100.0 mg/kg/injection, schedule: Q01DX009 (ip), vehicle: saline 100 % of control | dose: 200.0 mg/kg/injection, schedule: Q01DX009 (ip), vehicle: saline 105 % of control | dose: 400.0 mg/kg/injection, schedule: Q01DX009 (ip), vehicle: saline 100 % of control

CNC(=O)Nc1cc(OC)ccc1OC
inactive: [18] 106 % of control | [19] 98 % of control | dose: 400.0 mg/kg/injection, schedule: Q01DX009 (ip), vehicle: Klucel (hydroxypropylcellulose) (HPC) 107 % of control

O=C(OCC1CC=CC1)C1CC=CC1
inactive: dose: 100.0 mg/kg/injection, schedule: Q04DX003 (ip), vehicle: saline sonified 102 % of control | dose: 200.0 mg/kg/injection, schedule: Q04DX003 (ip), vehicle: saline sonified 96 % of control

CC(C)C(CN)(CCCN1CCCC1)c1cccc2ccccc12 (configuration not stated)
inactive: [5] 102 % of control

C=CC/C=C/C1CCCCC1
inactive: [13] 92 % of control | [4] 100 % of control | [6] 89 % of control

C=CCc1cc(C)ccc1OC(=O)c1cc([N+](=O)[O-])cc([N+](=O)[O-])c1
inactive: dose: 100.0 mg/kg/injection, schedule: Q01DX001 (ip), vehicle: saline 102 % of control | dose: 200.0 mg/kg/injection, schedule: Q01DX001 (ip), vehicle: saline 98 % of control | dose: 400.0 mg/kg/injection, schedule: Q01DX001 (ip), vehicle: saline 98 % of control

CC(CO)(C(=O)O)c1ccccc1 (configuration not stated)
inactive: dose: 55.0 mg/kg/injection, schedule: Q01DX Z (ip), vehicle: saline 103 % of control | dose: 83.0 mg/kg/injection, schedule: Q01DX Z (ip), vehicle: saline 96 % of control | dose: 125.0 mg/kg/injection, schedule: Q01DX Z (ip), vehicle: saline 94 % of control

O=C1OCC/C1=C\NCCCN/C=C1\CCOC1=O
inactive: [20] 105 % of control | [21] 108 % of control | [22] 94 % of control

CCCCCCCCCCCCCCCC(=O)c1ccccc1
inactive: [14] 106 % of control | [15] 103 % of control | dose: 400.0 mg/kg/injection, schedule: Q01DX001 (ip), vehicle: Klucel (hydroxypropylcellulose) (HPC) 88 % of control

O=C(c1ccc([N+](=O)[O-])cc1)c1ccc(O)cc1O
inactive: dose: 100.0 mg/kg/injection, schedule: Q01DX001 (ip), vehicle: other 101 % of control | dose: 100.0 mg/kg/injection, schedule: Q04DX003 (ip), vehicle: other 100 % of control | dose: 200.0 mg/kg/injection, schedule: Q01DX001 (ip), vehicle: other 101 % of control | dose: 200.0 mg/kg/injection, schedule: Q04DX003 (ip), vehicle: other 101 % of control | dose: 400.0 mg/kg/injection, schedule: Q01DX001 (ip), vehicle: other 103 % of control | dose: 400.0 mg/kg/injection, schedule: Q04DX003 (ip), vehicle: other 97 % of control

Cc1cc(=O)[nH][nH]c1=O
inactive: dose: 50.0 mg/kg/injection, schedule: Q01DX009 (ip), vehicle: Klucel (hydroxypropylcellulose) (HPC) 97 % of control | dose: 50.0 mg/kg/injection, schedule: Q04DX003 (ip), vehicle: Klucel (hydroxypropylcellulose) (HPC) 106 % of control | [10] 95 % of control | [18] 105 % of control | [16] 103 % of control | dose: 100.0 mg/kg/injection, schedule: Q04DX003 (ip), vehicle: saline 94 % of control | [11] 92 % of control | [19] 101 % of control | [17] 101 % of control | dose: 200.0 mg/kg/injection, schedule: Q04DX003 (ip), vehicle: saline 97 % of control | [12] 100 % of control | dose: 400.0 mg/kg/injection, schedule: Q04DX003 (ip), vehicle: saline 97 % of control

O=c1c2ccc(Cl)cc2[nH]c(=S)n1-c1ccc(Cl)cc1
inactive: [4] 89 % of control | [6] 89 % of control | [8] 87 % of control

CCOC(=O)/C(=C\c1ccccc1)c1nc2ccccc2[nH]1
inactive: [20] 97 % of control | [21] 101 % of control | [22] 94 % of control

CCN(CC)CCNCc1ccccc1
inactive: dose: 25.0 mg/kg/injection, schedule: Q01DX003 (ip), vehicle: saline 99 % of control | dose: 50.0 mg/kg/injection, schedule: Q01DX003 (ip), vehicle: saline 97 % of control | dose: 75.0 mg/kg/injection, schedule: Q01DX003 (ip), vehicle: saline 99 % of control | dose: 75.0 mg/kg/injection, schedule: Q04DX003 (ip), vehicle: saline 97 % of control

CSc1nnc2sc(=S)[nH]n12
inactive: [1] 105 % of control | [2] 90 % of control | [3] 94 % of control
